The subject of the data set is CCRIS mutagenicity, Ames/micronucleus/aberration tests. Briefly: CCRIS mutagenicity studies.
Setting [1] is: Test System: AMES SALMONELLA TYPHIMURIUM, Strain/Indicator: TA98, Metabolic Activation: NONE, Method: PREINCUBATION
Setting [2] is: Test System: AMES SALMONELLA TYPHIMURIUM, Strain/Indicator: TA100, Metabolic Activation: NONE, Method: PREINCUBATION
[3] abbreviates: Test System: AMES SALMONELLA TYPHIMURIUM, Strain/Indicator: TA1535, Metabolic Activation: NONE, Method: STANDARD PLATE.
Setting [4] is: Test System: AMES SALMONELLA TYPHIMURIUM, Strain/Indicator: TA1535, Metabolic Activation: RAT, LIVER, S-9, AROCLOR 1254, Method: STANDARD PLATE.
Where [5] appears, read: Test System: AMES SALMONELLA TYPHIMURIUM, Strain/Indicator: TA100, Metabolic Activation: RAT, LIVER, S-9, PCB, Method: PREINCUBATION
Setting [6] is: Test System: AMES SALMONELLA TYPHIMURIUM, Strain/Indicator: TA98, Metabolic Activation: NONE, Method: STANDARD PLATE.
[7] abbreviates: Test System: AMES SALMONELLA TYPHIMURIUM, Strain/Indicator: TA98, Metabolic Activation: RAT, LIVER, S-9, AROCLOR 1254, Method: STANDARD PLATE.
The mark [8] stands for this setting: Test System: AMES SALMONELLA TYPHIMURIUM, Strain/Indicator: TA100, Metabolic Activation: NONE, Method: STANDARD PLATE.
The mark [9] stands for this setting: Test System: AMES SALMONELLA TYPHIMURIUM, Strain/Indicator: TA100, Metabolic Activation: RAT, LIVER, S-9, AROCLOR 1254, Method: STANDARD PLATE.

Activity calls are given as the source filed them. The rule behind the calls is not given here.

With `CC(=O)Nc1cccc2ncccc12`, the mutagenic call runs as follows: under setting [1], “inactive; negative”; (Test System: AMES SALMONELLA TYPHIMURIUM, Strain/Indicator: TA98, Metabolic Activation: RAT, LIVER, S-9, KANECHLOR 500, Method: PREINCUBATION) “inactive; negative”; under setting [2], “inactive; negative”; (Test System: AMES SALMONELLA TYPHIMURIUM, Strain/Indicator: TA100, Metabolic Activation: RAT, LIVER, S-9, KANECHLOR 500, Method: PREINCUBATION) “inactive; negative”.
For the compound `COC(=O)/C(C#N)=C/c1ccccc1Br`, the mutagenic call under setting [3] was “inactive; negative” and the mutagenic call under setting [4] was “inactive; negative”.
Take `COc1ccc2c(CBr)cc(=O)oc2c1`: the mutagenic call is, setting by setting: under setting [1], “inactive; negative”; (Test System: AMES SALMONELLA TYPHIMURIUM, Strain/Indicator: TA98, Metabolic Activation: RAT, LIVER, S-9, PCB, Method: PREINCUBATION) “inactive; negative”; under setting [2], “inactive; negative”; under setting [5], “inactive; negative”; (Test System: E. COLI, Strain/Indicator: WP2 UVRA, Metabolic Activation: NONE, Method: PREINCUBATION) “inactive; negative”.
For the compound `CC[C@H]1OC(=O)[C@H](C)[C@@H](O[C@H]2C[C@@](C)(OC)[C@@H](O)[C@H](C)O2)[C@H](C)[C@@H](O[C@@H]2O[C@H](C)C[C@H](N(C)C)[C@H]2O)[C@](C)(OC)C[C@@H](C)C(=O)[C@H](C)[C@@H](O)[C@]1(C)O`, the mutagenic call by setting is: (End Point: AMES SALMONELLA TYPHIMURIUM, Test System: TA98, Metabolic Activation: NONE, Method: STANDARD PLATE) “inactive; negative”; (End Point: AMES SALMONELLA TYPHIMURIUM, Test System: TA100, Metabolic Activation: NONE, Method: STANDARD PLATE) “inactive; negative”.
In the case of `CN1CCN(N=O)CC1`, the mutagenic call (Test System: CHINESE HAMSTER V-79, Strain/Indicator: V-79/8-AZAGUANINE, Metabolic Activation: RAT, LIVER, S-15, PHENOBARBITAL, Method: STANDARD PLATE) was “active; positive”.
For the compound `C=CC(=O)OC(C)(C)C`, the mutagenic call under setting [6] is “inactive; negative”; the mutagenic call under setting [7] is “inactive; negative”; the mutagenic call (Test System: AMES SALMONELLA TYPHIMURIUM, Strain/Indicator: TA98, Metabolic Activation: RAT, LIVER, S-9, SODIUM PHENOBARBITAL, Method: STANDARD PLATE) was “inactive; negative”; the mutagenic call under setting [8] was “inactive; negative”; the mutagenic call under setting [9] is “inactive; negative”; the mutagenic call (Test System: AMES SALMONELLA TYPHIMURIUM, Strain/Indicator: TA100, Metabolic Activation: RAT, LIVER, S-9, SODIUM PHENOBARBITAL, Method: STANDARD PLATE) was “inactive; negative”. The mutagenic call reads like this: under setting [3], “inactive; negative”; under setting [4], “inactive; negative”; (Test System: AMES SALMONELLA TYPHIMURIUM, Strain/Indicator: TA1535, Metabolic Activation: RAT, LIVER, S-9, SODIUM PHENOBARBITAL, Method: STANDARD PLATE) “inactive; negative”; (Test System: AMES SALMONELLA TYPHIMURIUM, Strain/Indicator: TA1537, Metabolic Activation: NONE, Method: STANDARD PLATE) “inactive; negative”; (Test System: AMES SALMONELLA TYPHIMURIUM, Strain/Indicator: TA1537, Metabolic Activation: RAT, LIVER, S-9, AROCLOR 1254, Method: STANDARD PLATE) “inactive; negative”; (Test System: AMES SALMONELLA TYPHIMURIUM, Strain/Indicator: TA1537, Metabolic Activation: RAT, LIVER, S-9, SODIUM PHENOBARBITAL, Method: STANDARD PLATE) “inactive; negative”. Besides, the mutagenic call by setting is: (Test System: AMES SALMONELLA TYPHIMURIUM, Strain/Indicator: TA1538, Metabolic Activation: NONE, Method: STANDARD PLATE) “inactive; negative”; (Test System: AMES SALMONELLA TYPHIMURIUM, Strain/Indicator: TA1538, Metabolic Activation: RAT, LIVER, S-9, AROCLOR 1254, Method: STANDARD PLATE) “inactive; negative”; (Test System: AMES SALMONELLA TYPHIMURIUM, Strain/Indicator: TA1538, Metabolic Activation: RAT, LIVER, S-9, SODIUM PHENOBARBITAL, Method: STANDARD PLATE) “inactive; negative”.
Consider `O=c1[nH]c(=O)n([C@H]2C[C@H](O)[C@@H](CO)O2)cc1Br`, for which the mutagenic call is, setting by setting: under setting [6], “inactive; negative”; (Test System: AMES SALMONELLA TYPHIMURIUM, Strain/Indicator: TA98, Metabolic Activation: S-9, Method: STANDARD PLATE) “inactive; negative”; under setting [8], “inactive; negative”; (Test System: AMES SALMONELLA TYPHIMURIUM, Strain/Indicator: TA100, Metabolic Activation: S-9, Method: STANDARD PLATE) “inactive; negative”; (Test System: AMES SALMONELLA TYPHIMURIUM, Strain/Indicator: TA1537, Metabolic Activation: S-9, Method: STANDARD PLATE) “inactive; negative”; (Test System: CHINESE HAMSTER V-79, Strain/Indicator: V-79/6-THIOGUANINE, Metabolic Activation: NONE, Method: STANDARD PLATE) “active; positive”. For the same compound, the mutagenic call runs as follows: (Test System: CHINESE HAMSTER V-79, Strain/Indicator: V-79/8-AZAGUANINE, Metabolic Activation: NONE, Method: STANDARD PLATE) “active; positive”; (Test System: E. COLI, Strain/Indicator: WP2 (HCR), Metabolic Activation: NONE, Method: STANDARD PLATE) “inactive; negative”; (Test System: E. COLI, Strain/Indicator: WP2 (HCR), Metabolic Activation: S-9, Method: STANDARD PLATE) “inactive; negative”.
As to `CN(C)CCCCl`, the mutagenic call (Test System: AMES SALMONELLA TYPHIMURIUM, Strain/Indicator: TA98, Metabolic Activation: HAMSTER, LIVER, S-9, AROCLOR 1254, Method: STANDARD PLATE) is “inactive; negative”; the mutagenic call under setting [6] is “inactive; negative”; the mutagenic call under setting [7] is “inactive; negative”; the mutagenic call (Test System: AMES SALMONELLA TYPHIMURIUM, Strain/Indicator: TA100, Metabolic Activation: HAMSTER, LIVER, S-9, AROCLOR 1254, Method: STANDARD PLATE) is “active; positive”; the mutagenic call under setting [8] is “active; positive”; the mutagenic call under setting [9] is “active; positive”. Further, the mutagenic call reads like this: (Test System: MOUSE LYMPHOMA, Strain/Indicator: L5178Y (TK+/TK-), Metabolic Activation: NONE, Method: SUSPENSION/PLATE) “inactive; positive. reevaluation of results: negative”; (Test System: MOUSE LYMPHOMA, Strain/Indicator: L5178Y (TK+/TK-), Metabolic Activation: RAT, LIVER, S-9, AROCLOR 1254, Method: SUSPENSION/PLATE) “active; positive. reevaluation of results: inconclusive”.
For the compound `CC(/C=C(/C#N)c1ccc(Br)cc1)C(c1ccccc1)C(C#N)c1ccc(Br)cc1` (stereo unspecified), for the setting “Test System: AMES SALMONELLA TYPHIMURIUM, Strain/Indicator: TA97A, Metabolic Activation: NONE, Method: STANDARD PLATE”, the mutagenic call was “inactive; negative”.
As to `CC(=O)Nc1ccc(Oc2ccc(NO)cc2)cc1`, the mutagenic call by setting is: (Test System: AMES SALMONELLA TYPHIMURIUM, Strain/Indicator: TA98(1,8-DNP6), Metabolic Activation: NONE, Method: PREINCUBATION) “active; positive”; (Test System: AMES SALMONELLA TYPHIMURIUM, Strain/Indicator: TA98(1,8-DNP6), Metabolic Activation: RAT, LIVER, S-9, AROCLOR 1254, Method: PREINCUBATION) “active; positive”; (Test System: AMES SALMONELLA TYPHIMURIUM, Strain/Indicator: TA98(NR), Metabolic Activation: NONE, Method: PREINCUBATION) “active; positive”; (Test System: AMES SALMONELLA TYPHIMURIUM, Strain/Indicator: TA98(NR), Metabolic Activation: RAT, LIVER, S-9, AROCLOR 1254, Method: PREINCUBATION) “active; positive”; under setting [1], “active; positive”; (Test System: AMES SALMONELLA TYPHIMURIUM, Strain/Indicator: TA98, Metabolic Activation: RAT, LIVER, S-9, AROCLOR 1254, Method: PREINCUBATION) “active; positive”. In addition, the mutagenic call reads like this: (Test System: AMES SALMONELLA TYPHIMURIUM, Strain/Indicator: TA100(NR), Metabolic Activation: NONE, Method: PREINCUBATION) “active; positive”; under setting [2], “active; positive”.
In the case of `[N-]=[N+]=N[C@@H](c1ccccc1)[C@H](O)CO`, the mutagenic call under setting [5] is “active; positive”.

Values taken from PubChem BioAssay AID1259407 (Chemical Carcinogenesis Research Information System (CCRIS), 2018).
